PMC2137936, “Molecular Analysis of Thymopentin Binding to HLA-DR Molecules” (PLoS ONE, 2007)
No end group written: not given here.

Experiments:
[1] = test system: EBV-transformed B cells expressing HLA-DR; experiment: Cellular peptide loading assay (CLSM uptake); assay type: cell-based, human; conditions: 10 µM, 2 h at 37°C, excitation 488 nm
Method: To validate the ability of FITC-labeled TP5 to load on EBV-transformed B cells expressing HLA-DR, a qualitative CLSM assay was used to examine the fluorescent signal of EBV-transformed B cells. The surface fluorescence was hardly observed from the cells in the absence of FITC-labeled TP5 at the excitation of 488 nm (Fig. 1A).
We harvested 3×10^5 cells, washed twice with phosphate-buffered saline (PBS) buffer (pH 7.4) supplemented with 0.1% BSA and 0.05% NaN3. Ten µM FITC- labeled TP5 was added to the treated cells in PBS (pH 7.4) containing 1% BSA (binding buffer), then incubated for 2 h at 37°C. Thereafter, the cells were washed twice and resuspended in 500 µl PBS, followed by CLSM analysis using Leica Microsystems (TCS SP2, Heidelberg, Germany).

[2] = test system: HLA-DR on the surface of EBV-transformed B cells; experiment: Direct binding of FITC-labeled TP5 to EBV-transformed B cells (flow cytometry); parameters: species or system human
Method: Therefore, a quantitative flow cytometric assay was used to get a better insight into the binding affinity of TP5 to HLA-DR on the surface of EBV-transformed B cells. […] Simultaneously, a correlation with R^2 = 0.9903 and a slope of 0.01311 were obtained. We then compared the specific binding of FITC-labeled TP5 to HLA-DR.
EBV-transformed B cells expressing HLA-DR molecules were maintained in RPMI 1640 containing 2 mM L-glutamine (HyClone Laboratories, UT, USA) supplemented with 10% standard FBS (HyClone Laboratories, UT, USA) at 37°C and in 5% CO2. Expression of HLA-DR was verified using mAb-DR L243 labeled with FITC (Pharmingen, San Diego, USA), by incubation for 45 min on ice followed by CLSM and FCM.
EBV-transformed B cells (3×10^5 per sample) were incubated with various concentrations of FITC-labeled TP5 in binding buffer for 2 h at 37°C. Thereafter, the cells were washed twice and resuspended in 500 µl PBS, followed by flow cytometric analysis using a FACSCan analyzer (Becton Dickinson Immunochemical Systems, Mountain View, USA). A total of ten thousand events were acquired for each sample. The MFI was used to evaluate the binding ability of FITC-labeled TP5 to APC.

With “FITC-labeled TP5: TP5 conjugated with fluorescein isothiocyanate (FITC) (RKDVY; also: FITC label, position not given here)” the “surface fluorescence of cells (uptake)” value [1] was “strong surface fluorescence”, the “cells stained above the background” value ([2]; flow cytometry histogram of fluorescence intensities, EBV-transformed B cells (Fig. 4)) was 94% and the “increase in mean fluorescence intensity (MFI) above background” value ([2]; flow cytometry, EBV-transformed B cells versus PBS alone (Fig. 4)) was “approximately 3 orders of magnitude”.
